Test results published in patent US20250034216A1, “STEREOSELECTIVE COVALENT LIGANDS FOR ONCOGENIC AND IMMUNOLOGICAL PROTEINS” (The Scripps Research Institute, priority 2021, published 2025).

Key:
Test in all cases: IA-DTB cysteine engagement
Type in all cases: binding
ALG3_C21 = biological target: T1, ALG3_C21 (Homo sapiens, UniProt Q92685); details: 22Rv1 cells, 20 μM probe, 1 h, relative to DMSO
T1 construct: endogenous in cells; host or cells: 22Rv1
T1 sequence (Q92685 1-438): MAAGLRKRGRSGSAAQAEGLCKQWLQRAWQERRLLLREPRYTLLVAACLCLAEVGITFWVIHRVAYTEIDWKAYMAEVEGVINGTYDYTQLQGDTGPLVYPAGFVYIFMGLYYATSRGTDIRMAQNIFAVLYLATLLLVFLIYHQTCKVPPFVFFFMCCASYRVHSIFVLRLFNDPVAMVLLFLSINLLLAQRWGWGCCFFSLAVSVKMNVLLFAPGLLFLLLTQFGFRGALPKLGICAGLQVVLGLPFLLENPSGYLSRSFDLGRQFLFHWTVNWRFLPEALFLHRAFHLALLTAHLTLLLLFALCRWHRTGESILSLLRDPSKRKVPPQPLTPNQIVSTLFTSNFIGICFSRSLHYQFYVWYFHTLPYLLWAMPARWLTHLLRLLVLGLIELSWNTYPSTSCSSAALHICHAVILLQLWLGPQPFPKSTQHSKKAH
How it was run: (§1)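 Competitive chemoproteomics: residual cysteine reactivity toward IA-DTB in lysates from probe-treated cells was quantified by TMT reporter ions relative to DMSO-treated controls. Replicates sharing cell line, probe, concentration and duration were averaged.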

YES1_C287 = biological target: T2, YES1_C287 (Homo sapiens, UniProt P07947); details: 22Rv1 cells, relative to DMSO; for % engagement YES1_C287: 20 μM probe, 1 h; for % engagement YES1_287: 5 μM probe, 1 h (FIG. 5B)
T2 construct: endogenous in cells; host or cells: 22Rv1
How it was run: as §1

XXYLT1_C10 = biological target: T3, XXYLT1_C10 (Homo sapiens, UniProt Q8NBI6); details: 22Rv1 cells, 20 μM probe, 1 h, relative to DMSO
T3 construct: endogenous in cells; host or cells: 22Rv1
T3 sequence (Q8NBI6 1-393): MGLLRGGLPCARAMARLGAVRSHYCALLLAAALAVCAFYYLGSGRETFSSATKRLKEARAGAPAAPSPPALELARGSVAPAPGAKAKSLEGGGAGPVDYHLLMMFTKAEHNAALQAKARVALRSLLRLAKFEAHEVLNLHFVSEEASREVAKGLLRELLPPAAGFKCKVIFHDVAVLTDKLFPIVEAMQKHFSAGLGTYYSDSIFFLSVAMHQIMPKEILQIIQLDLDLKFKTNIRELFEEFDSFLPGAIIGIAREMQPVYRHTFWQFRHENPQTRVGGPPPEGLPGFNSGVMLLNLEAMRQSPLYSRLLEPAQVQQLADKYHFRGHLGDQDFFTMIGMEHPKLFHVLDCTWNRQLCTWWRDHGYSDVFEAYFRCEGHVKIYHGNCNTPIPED
How it was run: as §1

CKAP4_C100 = biological target: T4, CKAP4_C100 (Homo sapiens, UniProt Q07065); details: 22Rv1 cells, 20 μM probe, 1 h, relative to DMSO
T4 construct: endogenous in cells; host or cells: 22Rv1
T4 sequence (Q07065 1-602): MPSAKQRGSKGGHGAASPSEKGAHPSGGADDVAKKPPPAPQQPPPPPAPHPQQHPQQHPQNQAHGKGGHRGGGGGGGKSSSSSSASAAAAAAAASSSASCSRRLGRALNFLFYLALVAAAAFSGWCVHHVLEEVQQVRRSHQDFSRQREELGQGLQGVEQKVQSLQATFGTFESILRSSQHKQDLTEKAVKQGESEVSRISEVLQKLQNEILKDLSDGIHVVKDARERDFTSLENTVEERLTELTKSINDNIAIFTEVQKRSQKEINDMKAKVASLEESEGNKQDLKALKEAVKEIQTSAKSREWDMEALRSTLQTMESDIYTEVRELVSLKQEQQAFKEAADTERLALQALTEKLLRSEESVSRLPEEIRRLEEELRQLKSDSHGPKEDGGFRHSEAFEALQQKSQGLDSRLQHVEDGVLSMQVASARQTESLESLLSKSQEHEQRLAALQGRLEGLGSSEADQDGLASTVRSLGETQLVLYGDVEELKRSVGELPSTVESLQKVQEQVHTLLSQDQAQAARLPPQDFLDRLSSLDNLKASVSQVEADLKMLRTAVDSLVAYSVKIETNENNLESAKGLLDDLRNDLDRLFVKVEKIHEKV
How it was run: as §1

T2 sequence (P07947 whole entry): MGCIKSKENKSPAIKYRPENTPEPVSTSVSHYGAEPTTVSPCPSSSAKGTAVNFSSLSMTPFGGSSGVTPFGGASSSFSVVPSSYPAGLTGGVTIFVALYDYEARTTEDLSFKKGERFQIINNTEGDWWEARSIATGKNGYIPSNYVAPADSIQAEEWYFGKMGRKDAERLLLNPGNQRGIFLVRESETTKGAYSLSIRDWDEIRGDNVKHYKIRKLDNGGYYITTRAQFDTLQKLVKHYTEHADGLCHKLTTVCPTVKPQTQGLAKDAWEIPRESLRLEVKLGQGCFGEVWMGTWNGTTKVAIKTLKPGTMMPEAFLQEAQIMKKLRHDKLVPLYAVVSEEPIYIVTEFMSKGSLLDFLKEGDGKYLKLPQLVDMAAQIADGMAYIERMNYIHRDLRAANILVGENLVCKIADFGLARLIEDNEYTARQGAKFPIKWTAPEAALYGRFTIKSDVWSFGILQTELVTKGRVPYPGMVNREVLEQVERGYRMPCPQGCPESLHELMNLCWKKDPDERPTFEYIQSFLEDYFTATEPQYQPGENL

Row | SMILES | % engagement ALG3_C21 (ALG3_C21) [%] | % engagement YES1_C287 (YES1_C287) [%] | % engagement XXYLT1_C10 (XXYLT1_C10) [%] | % engagement CKAP4_C100 (CKAP4_C100) [%] | % engagement YES1_287 (YES1_C287) [%]
1 | C=CC(=O)N1C[C@H](c2ccc(Br)cc2)[C@H]1C(=O)Nc1cccc2cccnc12 [MY-3B, (2S,3S)-1-acryloyl-3-(4-bromophenyl)-N-(quinolin-8-yl)azetidine-2-carboxamide] | 84.75 | 42.25 | 93 | 93.75 | 
2 | CC#CC(=O)N1C[C@H](c2ccc(Br)cc2)[C@@H]1C(=O)Nc1cccc2cccnc12 [MY-45B, (2R,3S)-3-(4-bromophenyl)-1-(but-2-ynoyl)-N-(quinolin-8-yl)azetidine-2-carboxamide] |  |  |  |  | 5.50

Second part, the molecule after the results:

Row | % engagement ALG3_C21 (ALG3_C21) [%] | % engagement YES1_C287 (YES1_C287) [%] | % engagement XXYLT1_C10 (XXYLT1_C10) [%] | % engagement CKAP4_C100 (CKAP4_C100) [%] | % engagement YES1_287 (YES1_C287) [%] | SMILES
3 | 68 | 94.5 | 77 | 90.25 | 67.13 | C=CC(=O)N1C[C@H](c2ccc(Br)cc2)[C@@H]1C(=O)Nc1cccc2cccnc12 [MY-1B, (2R,3S)-1-acryloyl-3-(4-bromophenyl)-N-(quinolin-8-yl)azetidine-2-carboxamide]
4 | 74.5 | 0.5 | 67 | 78.75 |  | C=CC(=O)N1C[C@H](c2ccc(Br)cc2)[C@H]1C(=O)Nc1cccc2cccnc12 [MY-3A, (2S,3S)-1-acryloyl-3-(4-bromophenyl)-N-(quinolin-8-yl)azetidine-2-carboxamide]
5 | 90.25 | 5.75 | 76.5 | 84 |  | C=CC(=O)N1C[C@@H](c2ccc(Br)cc2)[C@H]1C(=O)Nc1cccc2cccnc12 [MY-1A, (2S,3R)-1-acryloyl-3-(4-bromophenyl)-N-(quinolin-8-yl)azetidine-2-carboxamide]
